In ChEMBL document CHEMBL3885881, “DrugMatrix”:

Tests used:
Rattus norvegicus [1] = organism: Rattus norvegicus; assay: DrugMatrix - Regimen: Daily Repeat; type: toxicity, organism-based, Sprague-Dawley; set-up: regimen Daily Repeat, gender Male, age 6-8 weeks; settings: in vivo, po, 2 mg/kg, route oral GAVAGE, dose level High, vehicle 100 % WATER; for ABSOLUTE BASOPHIL / ABSOLUTE EOSINOPHIL / ABSOLUTE LYMPHOCYTE / ABSOLUTE MONOCYTE / ABSOLUTE SEGMENTED NEUTROPHIL / BASOPHIL / EOSINOPHIL / ERYTHROCYTE COUNT / HEMATOCRIT / HEMOGLOBIN / LEUKOCYTE COUNT / LYMPHOCYTE / MEAN CORPUSCULAR HEMOGLOBIN / MEAN CORPUSCULAR HEMOGLOBIN CONCENTRATION / MEAN CORPUSCULAR VOLUME / MONOCYTE / NEUTROPHIL / NUCLEATED RED BLOOD CELLS / PLATELET COUNT: tissue Blood; for ALANINE AMINOTRANSFERASE / ALBUMIN / ALKALINE PHOSPHATASE / ASPARTATE AMINOTRANSFERASE / BLOOD UREA NITROGEN / CARBON DIOXIDE / CHLORIDE / CHOLESTEROL / CREATININE / GLUCOSE / LACTATE DEHYDROGENASE / LIPASE / PHOSPHORUS / POTASSIUM / SODIUM / TOTAL BILIRUBIN / TOTAL PROTEIN / URIC ACID: tissue Plasma
Rattus norvegicus [2] = organism: Rattus norvegicus; type: toxicity, organism-based, Sprague-Dawley; settings: in vivo, po, 2 mg/kg, 24 h, route oral GAVAGE, dose level High, time 1 day, vehicle 100 % WATER
Description: DrugMatrix - Regimen: Single

## O=[Se]([O-])[O-].[Na+].[Na+] [SODIUM SELENITE]
Rattus norvegicus [1]; 72 h, time 3 day
  ABSOLUTE BASOPHIL: 0 CELLS/uL
  ABSOLUTE EOSINOPHIL: 0 CELLS/uL
  ABSOLUTE LYMPHOCYTE: 12300.67 CELLS/uL
  ABSOLUTE MONOCYTE: 763.67 CELLS/uL
  ABSOLUTE SEGMENTED NEUTROPHIL: 2435.67 CELLS/uL
  BASOPHIL: 0%
  EOSINOPHIL: 0%
  ERYTHROCYTE COUNT: 6.2 x10E6/uL
  HEMATOCRIT: 38.47%
  HEMOGLOBIN: 14.1 G/DL
  LEUKOCYTE COUNT: 15.5 x10E3/uL
  LYMPHOCYTE: 80%
  MEAN CORPUSCULAR HEMOGLOBIN: 22.77 pg
  MEAN CORPUSCULAR HEMOGLOBIN CONCENTRATION: 36.7 G/DL
  MEAN CORPUSCULAR VOLUME: 62.07 fL
  MONOCYTE: 5%
  NEUTROPHIL: 15%
  NUCLEATED RED BLOOD CELLS: 0 /100WBC
  PLATELET COUNT: 701.33 x10E3/uL
  ALANINE AMINOTRANSFERASE: 84.33 u/L
  ALBUMIN: 4.57 G/DL
  ALKALINE PHOSPHATASE: 506.33 u/L
  ASPARTATE AMINOTRANSFERASE: 143.67 u/L
  BLOOD UREA NITROGEN: 15.67 mg/dL
  CARBON DIOXIDE: 24 mmol/L
  CHLORIDE: 102.33 MEQ/L
  CHOLESTEROL: 121.33 mg/dL
  CREATININE: 0.18 mg/dL
  GLUCOSE: 145.67 mg/dL
  LACTATE DEHYDROGENASE: 321.67 u/L
  LIPASE: 9 u/L
  PHOSPHORUS: 12.8 mg/dL
  POTASSIUM: 5.73 MEQ/L
  SODIUM: 146 MEQ/L
  TOTAL BILIRUBIN: 0.23 mg/dL
  TOTAL PROTEIN: 6.53 G/DL
  URIC ACID: 1.43 mg/dL
Rattus norvegicus [1]; 120 h, time 5 day
  ABSOLUTE BASOPHIL: 0 CELLS/uL
  ABSOLUTE EOSINOPHIL: 0 CELLS/uL
  ABSOLUTE LYMPHOCYTE: 10507.33 CELLS/uL
  ABSOLUTE MONOCYTE: 251 CELLS/uL
  ABSOLUTE SEGMENTED NEUTROPHIL: 875 CELLS/uL
  BASOPHIL: 0%
  EOSINOPHIL: 0%
  ERYTHROCYTE COUNT: 5.43 x10E6/uL
  HEMATOCRIT: 33.4%
  HEMOGLOBIN: 12.4 G/DL
  LEUKOCYTE COUNT: 11.63 x10E3/uL
  LYMPHOCYTE: 90.33%
  MEAN CORPUSCULAR HEMOGLOBIN: 22.87 pg
  MEAN CORPUSCULAR HEMOGLOBIN CONCENTRATION: 37.17 G/DL
  MEAN CORPUSCULAR VOLUME: 61.53 fL
  MONOCYTE: 2%
  NEUTROPHIL: 7.67%
  NUCLEATED RED BLOOD CELLS: 0 /100WBC
  PLATELET COUNT: 896.33 x10E3/uL
  ALANINE AMINOTRANSFERASE: 56.33 u/L
  ALBUMIN: 4.77 G/DL
  ALKALINE PHOSPHATASE: 396 u/L
  ASPARTATE AMINOTRANSFERASE: 80.67 u/L
  BLOOD UREA NITROGEN: 12.33 mg/dL
  CARBON DIOXIDE: 33.33 mmol/L
  CHLORIDE: 98.33 MEQ/L
  CHOLESTEROL: 86.33 mg/dL
  CREATININE: 0.14 mg/dL
  GLUCOSE: 141 mg/dL
  LACTATE DEHYDROGENASE: 84 u/L
  LIPASE: 8.33 u/L
  PHOSPHORUS: 13.2 mg/dL
  POTASSIUM: 6.3 MEQ/L
  SODIUM: 145.1 MEQ/L
  TOTAL BILIRUBIN: 0.2 mg/dL
  TOTAL PROTEIN: 6.87 G/DL
  URIC ACID: 0.67 mg/dL
Rattus norvegicus [1]; […], time 14 day
  ABSOLUTE BASOPHIL: 0 CELLS/uL
  ABSOLUTE EOSINOPHIL: 217 CELLS/uL
  ABSOLUTE LYMPHOCYTE: 17297 CELLS/uL
  ABSOLUTE MONOCYTE: 361.6 CELLS/uL
  ABSOLUTE SEGMENTED NEUTROPHIL: 2204.4 CELLS/uL
  BASOPHIL: 0%
  EOSINOPHIL: 1.2%
  ERYTHROCYTE COUNT: 6.02 x10E6/uL
  HEMATOCRIT: 35.24%
  HEMOGLOBIN: 13.22 G/DL
  LEUKOCYTE COUNT: 20.08 x10E3/uL
  LYMPHOCYTE: 85.8%
  MEAN CORPUSCULAR HEMOGLOBIN: 21.98 pg
  MEAN CORPUSCULAR HEMOGLOBIN CONCENTRATION: 37.54 G/DL
  MEAN CORPUSCULAR VOLUME: 58.52 fL
  MONOCYTE: 1.8%
  NEUTROPHIL: 11.2%
  NUCLEATED RED BLOOD CELLS: 0 /100WBC
  PLATELET COUNT: 1010.8 x10E3/uL
  ALANINE AMINOTRANSFERASE: 60.2 u/L
  ALBUMIN: 4.26 G/DL
  ALKALINE PHOSPHATASE: 330.2 u/L
  ASPARTATE AMINOTRANSFERASE: 119.4 u/L
  BLOOD UREA NITROGEN: 14 mg/dL
  CARBON DIOXIDE: 22.8 mmol/L
  CHLORIDE: 104.2 MEQ/L
  CHOLESTEROL: 62.8 mg/dL
  CREATININE: 0.21 mg/dL
  GLUCOSE: 199.6 mg/dL
  LACTATE DEHYDROGENASE: 281.2 u/L
  LIPASE: 8 u/L
  PHOSPHORUS: 13.28 mg/dL
  POTASSIUM: 5.95 MEQ/L
  SODIUM: 148.62 MEQ/L
  TOTAL BILIRUBIN: 0.16 mg/dL
  TOTAL PROTEIN: 6.16 G/DL
  URIC ACID: 2.08 mg/dL
Rattus norvegicus [2]; tissue Blood
  ABSOLUTE EOSINOPHIL: 75.33 CELLS/uL
  ABSOLUTE LYMPHOCYTE: 14511 CELLS/uL
  ABSOLUTE MONOCYTE: 680 CELLS/uL
  ABSOLUTE SEGMENTED NEUTROPHIL: 1733.67 CELLS/uL
  BASOPHIL: 0%
  EOSINOPHIL: 0.67%
  ERYTHROCYTE COUNT: 5.44 x10E6/uL
  HEMATOCRIT: 34.57%
  HEMOGLOBIN: 12.77 G/DL
  LEUKOCYTE COUNT: 17 x10E3/uL
  LYMPHOCYTE: 85%
  MEAN CORPUSCULAR HEMOGLOBIN: 23.53 pg
  MEAN CORPUSCULAR HEMOGLOBIN CONCENTRATION: 36.97 G/DL
  MEAN CORPUSCULAR VOLUME: 63.6 fL
  MONOCYTE: 4%
  NEUTROPHIL: 10.33%
  NUCLEATED RED BLOOD CELLS: 0 /100WBC
  PLATELET COUNT: 978.67 x10E3/uL
Rattus norvegicus [2]; tissue Plasma
  ALANINE AMINOTRANSFERASE: 57.67 u/L
  ALBUMIN: 4.3 G/DL
  ALKALINE PHOSPHATASE: 357.67 u/L
  ASPARTATE AMINOTRANSFERASE: 80.67 u/L
  BLOOD UREA NITROGEN: 12.33 mg/dL
  CARBON DIOXIDE: 27.67 mmol/L
  CHLORIDE: 103 MEQ/L
  CHOLESTEROL: 82.67 mg/dL
  CREATININE: 0.15 mg/dL
  GLUCOSE: 177 mg/dL
  LACTATE DEHYDROGENASE: 119 u/L
  LIPASE: 7.67 u/L
  PHOSPHORUS: 13.23 mg/dL
  POTASSIUM: 6.75 MEQ/L
  SODIUM: 146.8 MEQ/L
  TOTAL BILIRUBIN: 0.2 mg/dL
  TOTAL PROTEIN: 5.73 G/DL
  URIC ACID: 2.07 mg/dL
